Test results published in PubChem BioAssay (NCI).
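Protocol summary: plate cells (96-well), add compound at 5 concentrations, incubate 48 h, interpolate endpoints linearly. TGI: total growth inhibition.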

Key:
Assay in all cases: inhibition of tumour cell growth, NCI panel, 48 h
UACC-62 melanoma = test system: UACC-62 melanoma
CCRF-CEM leukemia = test system: CCRF-CEM leukemia
HT29 colon = test system: HT29 colon
SW-620 colon = test system: SW-620 colon
CAKI-1 renal = test system: CAKI-1 renal
MDA-MB-231 breast = test system: MDA-MB-231 breast
UACC-257 melanoma = test system: UACC-257 melanoma
MALME-3M melanoma = test system: MALME-3M melanoma
T-47D breast = test system: T-47D breast
U251 CNS = test system: U251 CNS
SF-268 CNS = test system: SF-268 CNS
SK-MEL-5 melanoma = test system: SK-MEL-5 melanoma
A498 renal = test system: A498 renal
KM12 colon = test system: KM12 colon
DU-145 prostate = test system: DU-145 prostate
BT-549 breast = test system: BT-549 breast
NCI-H23 lung = test system: NCI-H23 lung
M14 melanoma = test system: M14 melanoma
NCI-H226 lung = test system: NCI-H226 lung
PC-3 prostate = test system: PC-3 prostate
HCT-15 colon = test system: HCT-15 colon
EKVX NSCLC = test system: EKVX NSCLC
HOP-92 NSCLC = test system: HOP-92 NSCLC
SF-539 CNS = test system: SF-539 CNS
SNB-19 CNS = test system: SNB-19 CNS
SK-MEL-28 melanoma = test system: SK-MEL-28 melanoma
SK-MEL-2 melanoma = test system: SK-MEL-2 melanoma
NCI-H460 lung = test system: NCI-H460 lung
HCT-116 colon = test system: HCT-116 colon
SR leukemia = test system: SR leukemia
HCC-2998 colon = test system: HCC-2998 colon
HS 578T breast = test system: HS 578T breast
SNB-75 CNS = test system: SNB-75 CNS
NCI-H522 lung = test system: NCI-H522 lung
OVCAR-5 ovarian = test system: OVCAR-5 ovarian
OVCAR-8 ovarian = test system: OVCAR-8 ovarian
OVCAR-4 ovarian = test system: OVCAR-4 ovarian
OVCAR-3 ovarian = test system: OVCAR-3 ovarian
IGROV1 ovarian = test system: IGROV1 ovarian
NCI/ADR-RES ovarian = test system: NCI/ADR-RES ovarian
RXF 393 renal = test system: RXF 393 renal
SK-OV-3 ovarian = test system: SK-OV-3 ovarian
SF-295 CNS = test system: SF-295 CNS
LOX IMVI melanoma = test system: LOX IMVI melanoma
K-562 leukemia = test system: K-562 leukemia
HOP-62 NSCLC = test system: HOP-62 NSCLC
MDA-MB-435 = test system: MDA-MB-435
A549 NSCLC = test system: A549 NSCLC
MCF7 breast = test system: MCF7 breast
UO-31 renal = test system: UO-31 renal
786-0 renal = test system: 786-0 renal
MDA-N = test system: MDA-N
RPMI-8226 leukemia = test system: RPMI-8226 leukemia
TK-10 renal = test system: TK-10 renal
COLO 205 colon = test system: COLO 205 colon
SN12C renal = test system: SN12C renal
MOLT-4 leukemia = test system: MOLT-4 leukemia
ACHN renal = test system: ACHN renal

## C/C(=C\c1ccccc1)C(=O)NCc1ccc(C(=O)NCCc2ccccc2)cc1
UACC-62 melanoma
  TGI: > 100 µM
CCRF-CEM leukemia
  TGI: > 100 µM
HT29 colon
  TGI: 6.81 µM
SW-620 colon
  TGI: > 100 µM
CAKI-1 renal
  TGI: > 100 µM
MDA-MB-231 breast
  TGI: > 100 µM
UACC-257 melanoma
  TGI: > 100 µM
MALME-3M melanoma
  TGI: > 100 µM
T-47D breast
  TGI: > 100 µM
U251 CNS
  TGI: > 100 µM
SF-268 CNS
  TGI: > 39.5 µM
SK-MEL-5 melanoma
  TGI: > 100 µM
A498 renal
  TGI: > 100 µM
KM12 colon
  TGI: > 100 µM
DU-145 prostate
  TGI: > 100 µM
BT-549 breast
  TGI: > 100 µM
NCI-H23 lung
  TGI: > 100 µM
M14 melanoma
  TGI: > 100 µM
NCI-H226 lung
  TGI: 66.1 µM
PC-3 prostate
  TGI: > 100 µM
HCT-15 colon
  TGI: > 100 µM
EKVX NSCLC
  TGI: > 100 µM
HOP-92 NSCLC
  TGI: 99.1 µM
SF-539 CNS
  TGI: > 81.9 µM
SNB-19 CNS
  TGI: > 100 µM
SK-MEL-28 melanoma
  TGI: > 100 µM
SK-MEL-2 melanoma
  TGI: > 100 µM
NCI-H460 lung
  TGI: > 100 µM
HCT-116 colon
  TGI: > 100 µM
SR leukemia
  TGI: > 100 µM
HCC-2998 colon
  TGI: > 100 µM
HS 578T breast
  TGI: > 100 µM
SNB-75 CNS
  TGI: 19.5 µM
NCI-H522 lung
  TGI: > 100 µM
OVCAR-5 ovarian
  TGI: > 100 µM
OVCAR-8 ovarian
  TGI: 14.7 µM
OVCAR-4 ovarian
  TGI: > 100 µM
OVCAR-3 ovarian
  TGI: > 100 µM
IGROV1 ovarian
  TGI: > 100 µM
NCI/ADR-RES ovarian
  TGI: > 100 µM
RXF 393 renal
  TGI: 41.4 µM
SK-OV-3 ovarian
  TGI: 51.8 µM
SF-295 CNS
  TGI: 98.8 µM
LOX IMVI melanoma
  TGI: > 100 µM
K-562 leukemia
  TGI: > 100 µM
HOP-62 NSCLC
  TGI: 10.8 µM
MDA-MB-435
  TGI: > 100 µM
A549 NSCLC
  TGI: > 100 µM
MCF7 breast
  TGI: > 100 µM
UO-31 renal
  TGI: > 100 µM
786-0 renal
  TGI: > 100 µM
MDA-N
  TGI: > 100 µM
RPMI-8226 leukemia
  TGI: > 100 µM
TK-10 renal
  TGI: > 100 µM
COLO 205 colon
  TGI: > 100 µM
SN12C renal
  TGI: > 100 µM
MOLT-4 leukemia
  TGI: > 100 µM
ACHN renal
  TGI: > 100 µM

## COc1cc(O)c2c(=O)c3c(C)cccc3n(C)c2c1
UACC-62 melanoma
  TGI: > 10 µM
CCRF-CEM leukemia
  TGI: > 10 µM
HT29 colon
  TGI: > 10 µM
SW-620 colon
  TGI: > 10 µM
CAKI-1 renal
  TGI: > 10 µM
MDA-MB-231 breast
  TGI: > 10 µM
UACC-257 melanoma
  TGI: > 10 µM
MALME-3M melanoma
  TGI: > 10 µM
T-47D breast
  TGI: > 10 µM
U251 CNS
  TGI: > 10 µM
SF-268 CNS
  TGI: > 10 µM
SK-MEL-5 melanoma
  TGI: > 10 µM
A498 renal
  TGI: > 10 µM
KM12 colon
  TGI: > 10 µM
DU-145 prostate
  TGI: > 10 µM
BT-549 breast
  TGI: > 10 µM
NCI-H23 lung
  TGI: > 10 µM
M14 melanoma
  TGI: > 10 µM
NCI-H226 lung
  TGI: > 10 µM
PC-3 prostate
  TGI: > 10 µM
HCT-15 colon
  TGI: > 10 µM
EKVX NSCLC
  TGI: > 10 µM
HOP-92 NSCLC
  TGI: > 10 µM
SF-539 CNS
  TGI: > 10 µM
SNB-19 CNS
  TGI: > 10 µM
SK-MEL-28 melanoma
  TGI: > 10 µM
SK-MEL-2 melanoma
  TGI: > 10 µM
NCI-H460 lung
  TGI: > 10 µM
HCT-116 colon
  TGI: > 10 µM
HCC-2998 colon
  TGI: > 10 µM
HS 578T breast
  TGI: > 10 µM
SNB-75 CNS
  TGI: > 10 µM
NCI-H522 lung
  TGI: > 10 µM
OVCAR-5 ovarian
  TGI: > 10 µM
OVCAR-8 ovarian
  TGI: > 10 µM
OVCAR-4 ovarian
  TGI: > 10 µM
OVCAR-3 ovarian
  TGI: > 10 µM
IGROV1 ovarian
  TGI: > 10 µM
NCI/ADR-RES ovarian
  TGI: > 10 µM
RXF 393 renal
  TGI: > 10 µM
SK-OV-3 ovarian
  TGI: > 10 µM
SF-295 CNS
  TGI: > 10 µM
LOX IMVI melanoma
  TGI: > 10 µM
K-562 leukemia
  TGI: > 10 µM
HOP-62 NSCLC
  TGI: > 10 µM
MDA-MB-435
  TGI: > 10 µM
A549 NSCLC
  TGI: > 10 µM
MCF7 breast
  TGI: > 10 µM
UO-31 renal
  TGI: > 10 µM
786-0 renal
  TGI: > 10 µM
MDA-N
  TGI: > 10 µM
RPMI-8226 leukemia
  TGI: > 10 µM
TK-10 renal
  TGI: > 10 µM
COLO 205 colon
  TGI: > 10 µM
SN12C renal
  TGI: > 10 µM
MOLT-4 leukemia
  TGI: > 10 µM
ACHN renal
  TGI: > 10 µM
